Results: patent US8394856B2, “(-)-Hydroxycitric acid for controlling inflammation” (Glykon Technologies Group, LLC, priority 2002, dated 2013)

Columns and labels:
[1] = system: C-reactive protein; assay: C-reactive protein in serum of rats fed a 30% fat, approximately 20% simple sugar diet; assay type: in vivo; settings: salt approximately 76 mg/day
Text: (§1) To test the properties of HCA in various forms under conditions similar to those found in human clinical trials, the inventor arranged for rats to be fed a diet in which 30% of the calories were obtained from fat under standard conditions, with a further approximately 20% of the calories being supplied as simple sugars. Such a dietary combination of fat and simple sugars is noted as promoting a variety of metabolic imbalances and dysfunctions. The rats were intubated twice daily with one of five HCA salts or placebo. On weekends, the HCA was added to the food at an approprate dosage. The amount of HCA in each arm of 8 animals was based on the minimum dosage which had been found effective in the form of the pure trisodium salt of HCA in tests by Hoffmann-La Roche in animals ingesting a 70% glucose diet, i.e., 0.33 mmoles/kg body weight HCA given twice per day. […]
Tests were performed for C-reactive protein. […] Optical Density (OD) readings in the test kit used were 1 unit equals 50 picograms/mL. […]

[2] = Body weight in the same rat study; assay type: in vivo, rats; settings: week 6; data not shown
Text: as §1, with “day. The HCA salts used were these: KCaHCA=a mixed potassium and calcium or double metal HCA salt commercially marketed as being entirely water soluble and of relatively high purity; KHCA=a relatively clean commercial potassium salt of HCA with a good mineral ligand attachment supplying 4467 mg potassium/100 grams of material; KMgHCA=three different dosage levels of an experimental potassium and magnesium salt with special characteristics, but suspected of being relatively unstable when exposed to stomach acid.” for “day.”

[3] = literature (Sullivan and Gruen 1985); cited from earlier work
[4] = treated rats; Roche researchers (Sullivan and Triscari 1976); cited from earlier work

Structure (SMILES)	absolute CRP readings at week 4 compared with initially [1]	Δ OD units after 4 wks (C-reactive protein) ([1]; intubated twice daily, serum, start to week 4, 1 OD unit equals 50 picograms/mL) [OD units]	body weight versus control [2]	crossing of the blood-brain barrier [3]	plasma levels of glucose, insulin, or free fatty acids relative to controls [4]
O=C([O-])CC(O)(C(=O)[O-])C(O)C(=O)[O-].[K+].[K+].[K+] (centres unmarked) [KHCA, potassium hydroxycitrate]	lower at week 4 than initially	−155	greatest trend differences	–	–
O=C(O)CC(O)(C(=O)O)C(O)C(=O)O (single isomer, unassigned; (-)) [HCA, (−)-Hydroxycitric acid]	–	–	–	does not cross the blood-brain barrier	no significant differences
